Experimental data published in patent US11938137B2, “Lipid prodrugs of mycophenolic acid and uses thereof” (PureTech LYT, Inc., priority 2017, dated 2024).

What was measured:
[1] = Lymphatic transport assay in mesenteric lymph-duct cannulated rats; format: in vivo, rat; conditions: total MPA related compound, intraduodenal infusion, anesthetised mesenteric lymph-duct cannulated rats; class symbols
Protocol: In order to assess the lymphatic transport of disclosed lipid prodrugs in rats, the mesenteric lymph ducts of the rats used in this study were cannulated to allow continual collection of mesenteric lymph. Lipid formulations containing the compound of interest were then administered to the animals, lymph was collected, and drug concentrations in the lymph samples were quantified.
Lipid-based formulations of the compounds of the invention or control compounds were prepared as previously described (Trevaskis, N. L. et al., Pharmaceutical Research, 2005, 22(11), 1863-1870, WO 2016/023082, and WO 2017/041139, hereby incorporated by reference.
In brief, either 1 or 2 mg of test prodrug, 40 mg oleic acid and 25 mg Tween 80 were mixed in a glass vial and incubated at 37° C. for 12-18 h to equilibrate. An aqueous phase consisting of 5.6 ml phosphate buffered saline (PBS, pH 7.4) was subsequently added to the lipid phase (MPA was dissolved in PBS for the preparation of MPA containing formulations) and the formulation emulsified by ultrasonication with a Misonix XL 2020 ultrasonic processor (Misonix, Farmingdale, NY, USA) equipped with a 3.2-mm microprobe tip running at 30% of the maximal amplitude of 240 μm and a frequency of 20 kHz for 2 min at room temperature. Doses for administering to more than one animal can be prepared in one batch by suitably increasing the quantities given above. Drug/prodrug concentrations in all formulations were verified using HPLC-MS.
Male Sprague-Dawley (SD) rats were selected for the lymphatic transport studies. Rats (typically 240-320 g) were maintained on a standard diet and fasted overnight with free access to water prior to experiments.
Anesthetized rats were placed on a heated pad at 37° C. and cannulas inserted into the duodenum (for formulation administration and rehydration), mesenteric lymph duct (for lymph collection), and carotid artery (in cases where blood collection was conducted). Post-surgery, rats were re-hydrated for 0.5 h via intraduodenal infusion of normal saline at 2.8 mL/h. The lipid formulations were infused into the duodenum at 2.8 mL/h for 2 h after which, normal saline was infused at 2.8 mL/h for the remainder of the experiment. Lymph was continuously collected for up to 8 h into pre-weighed Eppendorf tubes containing 10 μL of 1,000 IU/mL heparin. The collection tubes were changed hourly and lymph flow was measured gravimetrically. Aliquots of hourly lymph samples were stored at −20° C. prior to assay.
Drug concentration in lymph is expressed as total drug and includes free drug and drug associated with different glycerides. Lymph samples are first treated with a lipase or other appropriate conditions to liberate free active agent prior to measurement of active agent levels in the lymph. Treatment with a lipase or other hydrolysis conditions liberates free active agent from any corresponding re-esterified glycerides. Porcine pancreatic lipase is appropriate for this purpose. Alternatively, hydrolysis with 0.5 M NaOH may be used. For MPA “phenol” prodrugs (i.e. prodrugs linked to the triglyceride at the aromatic —OH group of MPA), hydrolysis was performed with 0.5 M NaOH except for the lymph samples collected from 3 rats in the group of compound I-20 (MPA-O-C12α′βMe-TG), which were hydrolyzed by porcine pancreatic lipase.
Transport of compounds into lymph during each hourly collection period was calculated from the product of the volume of lymph collected and the measured concentrations in lymph. For fluorescently-labelled compounds such as a BDP-conjugate, the concentrations of total compound may be measured by fluorescence spectroscopy without hydrolysis.
The results of the lymphatic transport assays are summarized in Table 2, below, and FIGS. 1-19. Table 2 summarizes lymphatic transport of total MPA related compound (% of administered dose) following intraduodenal infusion to anaesthetised, mesenteric lymph-duct cannulated rats. […]

[2] = In vitro release of MPA from prodrugs in plasma supplemented with lipoprotein lipase (LPL); format: in vitro ADME, rat; conditions: for Percentage MPA release at 60 min in LPL supplemented rat plasma: n = 3 unless specified otherwise; for monoglyceride (MG) peak: after 180 min, rat plasma supplemented with LPL
Protocol: The percentage of MPA released at 60 minutes in LPL-supplemented rat plasma was also determined for selected compounds. […] The designation “**” indicates a release % of >25% to 50%. The designation “***” indicates a release % of >50% to 75%. The designation “****” indicates a release % of >75%.
In order to probe the release of free drug from TG prodrugs in the systemic circulation, prodrugs were incubated with plasma (rat, mouse, dog, pig or human) supplemented with lipoprotein lipase (LPL, 200 IU/ml). LPL is a key enzyme required for the hydrolysis of lipoprotein associated TG in the systemic circulation and is therefore expected to be a key contributor to lipolysis of the re-esterified drug-TG construct in plasma, largely via liberation of fatty acids in the sn-1 and the sn-3 position of the TG-mimetic, prior to drug release from the 2′ position via esterase hydrolysis. LPL is […] is tethered to the luminal surface of vascular endothelial cells under physiological conditions. In the current in vitro studies, plasma was therefore supplemented with LPL to better reflect the in vivo situation. To start hydrolysis, 10 μl of LPL solution (10,000 IU/ml) was added to a mixture of 10 μl of prodrug solution (1 mg/ml dissolved in acetonitrile) and 500 μl of blank plasma. The mixture was incubated at 37° C. Samples (20 μl) of the incubation solution were taken at 0, 5, 15, 30, 60, 90, 120 and 180 minutes post-incubation and added to 180 μl of MeCN to stop lipolysis. The mixture was vortexed and centrifuged at 4500×g for 5 minutes to precipitate proteins prior to analysis. The supernatant was analyzed by HPLC-MS/MS for the potential products (MG form, acid form, and free drug) of prodrug hydrolysis.

[3] = Prodrug lymph node study in mice (free MPA in mesenteric and peripheral lymph nodes); format: in vivo, mouse; conditions: oral multiple dose study (2 times daily for 2 days, samples on 3rd day)
From the text: This experiment included a single and multiple dose study.

[4] = cited from earlier work

| SMILES | Cumulative lymphatic transport % dose (Mean ± SD, or Range if n = 2) [1] | Percentage MPA release at 60 min in LPL supplemented rat plasma [2] | monoglyceride (MG) peak [2] | concentrations of free MPA in mesenteric lymph nodes compared with MPA [3] | bioavailability of testosterone after oral administration of the undecanoate ester [4] |
| --- | --- | --- | --- | --- | --- |
| CCCCCCCCCCCCCCCC(=O)OCC(COC(=O)CCCCCCCCCCCCCCC)OC(=O)CC(C)CCCCCCCC(C)C(=O)Oc1c(C/C=C(\C)CCC(=O)OC)c(OC)c(C)c2c1C(=O)OC2 (stereo not drawn) [I-20] | A (greater than 10% (>10%)) | *** (a release % of >50% to 75%) | almost completely disappeared |  |  |
| CCCCCCCCCCCCCCCC(=O)OCC(COC(=O)CCCCCCCCCCCCCCC)OC(=O)CC(C)CCCCCCCC(C)C(=O)OCCCCC(=O)Oc1c(C/C=C(\C)CCC(=O)OC)c(OC)c(C)c2c1C(=O)OC2 (stereo not drawn) [I-22, (E)-12-(1,3-Bis(palmitoyloxy)propan-2-yl) 1-(5-((6-methoxy-5-(6-methoxy-3-methyl-6-oxohex-2-en-1-yl)-7-methyl-3-oxo-1,3-dihydroisobenzofuran-4-yl)oxy)-5-oxopentyl) 2,10-dimethyldodecanedioate] | A (greater than 10% (>10%)) | *** (a release % of >50% to 75%) | almost completely disappeared |  |  |
| CCCCCCCCCCCCCCCC(=O)OCC(COC(=O)CCCCCCCCCCCCCCC)OC(=O)CC/C(C)=C/Cc1c(O)c2c(c(C)c1OC)COC2=O [I-34, MPA-2-TG] | A (greater than 10% (>10%)) | *** (a release % of >50% to 75%) |  | Much higher concentrations |  |
| CCCCCCCCCCCCCCCC(=O)OCC(COC(=O)CCCCCCCCCCCCCCC)OC(=O)C(C)CCCCCCC(C)C(=O)Oc1c(C/C=C(\C)CCC(=O)OC)c(OC)c(C)c2c1C(=O)OC2 (stereo not drawn) [I-61] | A (greater than 10% (>10%)) |  |  |  |  |
| CCCCCCCCCCCCCCCC(=O)OCC(COC(=O)CCCCCCCCCCCCCCC)OC(=O)CC(C)CCCCCCCC(C)C(=O)OCCCC(=O)Oc1c(C/C=C(\C)CCC(=O)OC)c(OC)c(C)c2c1C(=O)OC2 (stereo not drawn) [I-62, (E)-12-(1,3-bis(palmitoyloxy)propan-2-yl) 1-(4-((6-methoxy-5-(6-methoxy-3-methyl-6-oxohex-2-en-1-yl)-7-methyl-3-oxo-1,3-dihydroisobenzofuran-4-yl)oxy)-4-oxobutyl) 2,10-dimethyldodecanedioate] | A (greater than 10% (>10%)) |  |  |  |  |
| CCCCCCCCCCC(=O)O[C@H]1CC[C@H]2[C@@H]3CCC4=CC(=O)CC[C@]4(C)[C@H]3CC[C@]12C [testosterone undecanoate] |  |  |  |  | < 5% |
